Measured values from ChEMBL document CHEMBL1201862, “PubChem BioAssay data set” (2004).
Active and inactive are the calls of the source.

Experiments:
[1] = Luminescence Cell-Based Dose Response HTS to Identify Inhibitors of 5'UTR Stem-Loop Driven Prion Protein mRNA Translation in H4 Neuroglioblastoma Cells. [Related pubchem assays: 1827 (Project Summary), 1813 (Primary HTS)]; assay type: functional
[2] = inhibitors of SNCA 5'UTR-driven reporter translation, confirmation, H4 neuroglioma cells, luminescence (AID 1988); assay type: functional, cell-based
[3] = target: Luciferin 4-monooxygenase (Photinus pyralis, UniProt P08659); experiment: Counter Screen for Luciferase-based Assay Positives. [Related pubchem assays: 620, 618, 411 ]
HT-1080 = experiment: cytotoxicity in HT1080 fibrosarcoma cells, cell-based, fluorescence readout (AID 620); assay type: functional; conditions: Homo sapiens
[4] = target: T1, Oxysterols receptor LXR-beta (Homo sapiens, UniProt P55055); assay type: functional, cell-based;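 note: Cell-based luminescence dose-response assay of agonist activity at LXR, run as a confirmatory counterscreen to a daf-12 agonist screen; HEK293 cells with Gal4-LXR fusion and GAL4-driven luciferase reporter; agonist potency from rising luciferase signal of a Gal4-LXR reporter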
T1 sequence (P55055 whole entry): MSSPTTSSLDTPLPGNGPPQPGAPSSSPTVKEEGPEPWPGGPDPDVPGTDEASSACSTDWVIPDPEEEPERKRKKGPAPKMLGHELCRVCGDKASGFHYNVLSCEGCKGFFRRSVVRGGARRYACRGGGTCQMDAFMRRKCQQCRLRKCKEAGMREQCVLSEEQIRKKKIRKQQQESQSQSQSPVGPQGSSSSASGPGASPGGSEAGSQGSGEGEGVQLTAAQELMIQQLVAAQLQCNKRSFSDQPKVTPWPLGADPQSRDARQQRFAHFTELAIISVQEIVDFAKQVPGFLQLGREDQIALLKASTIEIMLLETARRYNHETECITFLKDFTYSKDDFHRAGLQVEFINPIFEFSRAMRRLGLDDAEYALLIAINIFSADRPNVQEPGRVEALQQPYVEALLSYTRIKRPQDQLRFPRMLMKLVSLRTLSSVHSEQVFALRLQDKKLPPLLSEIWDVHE

Cytochrome P450 2D6 = Cytochrome P450 2D6 (Homo sapiens, UniProt P10635); experiment: qHTS Assay for Inhibitors and Substrates of Cytochrome P450 2D6. [Related pubchem assays: 410 ]; assay type: ADME; conditions: read-out: Potency
HEK293 = experiment: Fluorescence-based counterscreen for potentiators or agonists of NPY-Y2: cell-based high-throughput dose response assay to identify inhibitors of cyclic nucleotide gated ion channel (CNGC) activity. In this assay, the parental HEK293 cell line transfected with a cyclic-nucleotide gated ion channel (CNGC)-based cAMP sensor is used to measure inhibition of isoproterenol-induced CNGC activity by test compound.; assay type: functional; conditions: Homo sapiens
[5] = target: Neuropeptide Y receptor type 1 (Homo sapiens, UniProt P25929); experiment: Fluorescence-based counterscreen for agonists of NPY-Y2: cell-based high-throughput dose response assay for agonists of NPY-Y1.; assay type: functional
[6] = target: Neuropeptide Y receptor type 2 (Homo sapiens, UniProt P49146); experiment: Fluorescence-based cell-based high-throughput dose response assay for agonists of NPY-Y2. [Related pubchem assays: 1703 (Screening assay (CNGC inhibitors).), 1359 (Screening assay (NPY-Y2 potentiators or agonists).), 1304 (Screening assay (NPY-Y1 potentiators or agonists).), 1710 (Screening assay (NPY-Y2 agonists).), 1791 (Summary AID.)]; assay type: functional
[7] = target: Lysosomal acid glucosylceramidase (Homo sapiens, UniProt P04062); experiment: Dose response cell-based high throughput screening assay to identify enhancers of beta-glucosidase activity. [Related pubchem assays: 784 ]; assay type: functional
Staphylococcus aureus = experiment: Inhibitors of Bacterial Quorum Sensing Structure Activity Relationship (SAR) Analysis: Dose Response Assay. [Related pubchem assays: 700, 527 ]; assay type: functional, organism-based
[8] = target: T2, Zinc finger protein mex-5 (Caenorhabditis elegans, UniProt Q9XUB2); experiment: MEX-5/TCR-2 RNA interaction inhibitors, dose response, biochemical, C. elegans, fluorescence polarization (AID 1960)
T2 sequence (Q9XUB2 whole entry): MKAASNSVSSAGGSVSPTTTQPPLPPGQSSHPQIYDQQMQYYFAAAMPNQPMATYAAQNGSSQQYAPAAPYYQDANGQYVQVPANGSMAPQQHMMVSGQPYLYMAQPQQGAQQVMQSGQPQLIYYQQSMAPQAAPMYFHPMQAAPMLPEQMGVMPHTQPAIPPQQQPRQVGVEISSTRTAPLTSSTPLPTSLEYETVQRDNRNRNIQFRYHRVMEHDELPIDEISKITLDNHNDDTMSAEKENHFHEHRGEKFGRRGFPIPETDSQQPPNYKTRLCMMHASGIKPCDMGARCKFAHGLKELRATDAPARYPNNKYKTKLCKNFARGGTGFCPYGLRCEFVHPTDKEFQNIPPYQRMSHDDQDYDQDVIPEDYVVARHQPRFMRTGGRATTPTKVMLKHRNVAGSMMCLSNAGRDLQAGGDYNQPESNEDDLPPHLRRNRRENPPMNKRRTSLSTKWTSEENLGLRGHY

Streptococcus = experiment: Group A Streptococcus viability loss, dose response, counter-screen for streptokinase expression inhibitor project, luminescence, BacTiterGlo (AID 1915); assay type: functional, organism-based;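 note: potency for reduction of bacterial viability or growth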
Streptokinase A = target: T3, Streptokinase A (Streptococcus pyogenes serotype M1, UniProt P10520); experiment: S. pyogenes streptokinase expression inhibitors, potency, dose response, plasminogen activation absorbance, OD405 (AID 1914); assay type: functional, Streptococcus pyogenes M1 GAS;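 note: secreted streptokinase activity via plasminogen activation per viability signal from cell pellet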
T3 sequence (P10520 whole entry): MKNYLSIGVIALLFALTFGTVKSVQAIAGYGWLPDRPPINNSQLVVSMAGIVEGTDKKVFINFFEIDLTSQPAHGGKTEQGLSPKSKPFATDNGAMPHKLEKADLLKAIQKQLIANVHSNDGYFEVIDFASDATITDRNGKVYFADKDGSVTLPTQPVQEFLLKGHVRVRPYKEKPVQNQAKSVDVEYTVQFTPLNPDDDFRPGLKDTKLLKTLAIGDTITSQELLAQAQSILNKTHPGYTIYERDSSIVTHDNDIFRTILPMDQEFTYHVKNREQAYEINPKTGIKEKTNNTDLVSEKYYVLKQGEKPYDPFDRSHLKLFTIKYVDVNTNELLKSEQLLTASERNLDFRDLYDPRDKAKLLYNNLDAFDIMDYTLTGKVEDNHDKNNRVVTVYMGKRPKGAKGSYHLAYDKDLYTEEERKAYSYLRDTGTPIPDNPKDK

Vero [9] = experiment: cells; assay type: functional; conditions: Chlorocebus sabaeus
Vero [10] = experiment: cells; assay type: functional, cell-based; conditions: Chlorocebus sabaeus
[11] = target: DNA (cytosine-5)-methyltransferase 1 (Homo sapiens, UniProt P26358); experiment: DNMT1 methyltransferase inhibitors, confirmation, biochemical, fluorescent molecular beacon (AID 602386); assay type: functional
[12] = HIV-1 Env-mediated cell fusion inhibitors, dose response, CCR5-tropic Env (AID 2279); assay type: functional
[13] = target: T4, RNA-binding protein pos-1 (Caenorhabditis elegans, UniProt G5EF15); experiment: inhibitors of POS-1/mex-3 RNA binding, dose response, biochemical, fluorescence polarization (AID 1964);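 note: purified POS-1 fused to maltose binding protein made in E. coli; potency of compounds blocking POS-1 binding to fluorescent RNA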
T4 sequence (G5EF15 whole entry): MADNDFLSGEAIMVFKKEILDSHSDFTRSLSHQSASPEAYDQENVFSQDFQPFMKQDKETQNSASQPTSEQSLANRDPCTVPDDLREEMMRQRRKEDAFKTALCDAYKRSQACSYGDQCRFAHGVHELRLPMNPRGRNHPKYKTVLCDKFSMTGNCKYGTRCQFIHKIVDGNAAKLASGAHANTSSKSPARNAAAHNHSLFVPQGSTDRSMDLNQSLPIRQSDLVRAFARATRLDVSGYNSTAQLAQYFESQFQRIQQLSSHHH

[14] = target: Heat shock protein HSP 90-alpha (Homo sapiens, UniProt P07900); assay type: functional, organism-based
Genome polyprotein = Genome polyprotein (dengue virus type 2, UniProt P29990); experiment: Dengue-2 NS5 methyltransferase inhibitors, primary screen, biochemical, confirmation dose response (AID 588689); assay type: functional
Vero [15] = experiment: Vero cell cytotoxicity, cytotoxicity control for flavivirus capping enzyme inhibitors (AID 588742); assay type: functional; conditions: Chlorocebus sabaeus
[16] = system: Streptococcus sp. 'group A'; experiment: growth inhibition of control SK(-) GAS strain, dose response, counter-screen for streptokinase expression inhibitor project, luminescence, kanamycin, BacTiterGlo, confirmation (AID 1900); assay type: functional, organism-based
[17] = target: Melanin-concentrating hormone receptor 1 (Homo sapiens, UniProt Q99705); experiment: Late-stage fluorescence-based counterscreen for antagonists of the G-protein coupled receptor 7 (GPR7): cell-based dose response assay to identify antagonists of the melanin-concentrating hormone receptor 1 (MCHR1). [Related pubchem assays (depositor defined):AID1861, AID1880, AID1952, AID2148, AID2251, AID2257, AID485339]; assay type: functional;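 note: stimulated with 30 nM MCH peptide agonist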
[18] = target: T5, Delta-type opioid receptor (Homo sapiens, UniProt P41143); experiment: DOR antagonists, SAR follow-up, image-based (AID 2357); assay type: functional
[19] = target: T6, Kappa-type opioid receptor (Homo sapiens, UniProt P41145); experiment: KOR agonist analogs, imaging readout, SAR follow-up, image-based (AID 2359); assay type: functional
Mu-type opioid receptor [20] = target: T7, Mu-type opioid receptor (Homo sapiens, UniProt P35372); experiment: MOR antagonists, SAR follow-up, image-based (AID 2420); assay type: functional;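 note: compounds added before stimulation of receptor with agonist DAMGO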
[21] = target: T6, Kappa-type opioid receptor; experiment: KOR antagonists by imaging, SAR follow-up, image-based (AID 2348); assay type: functional
Mu-type opioid receptor [22] = target: T7, Mu-type opioid receptor; experiment: MOR agonists by imaging, SAR follow-up, image-based (AID 2352); assay type: functional
[23] = target: T6, Kappa-type opioid receptor; experiment: SAR analysis of small molecule agonists of the kappa opioid receptor via a luminescent beta-arrestin assay. [Related pubchem assays (depositor defined):AID1777, AID1786, AID1966, AID2133, AID2136, AID2348, AID2352, AID2357, AID2359, AID2370, AID2420, AID2478, AID2491, AID2492, AID2493, AID2497, AID2498, AID2500, AID449737, AID488822, AID488842]; assay type: functional
[24] = target: T5, Delta-type opioid receptor; experiment: DOR agonists, SAR follow-up, image-based (AID 2370); assay type: functional
Chaperone protein dnaK = Chaperone protein dnaK (Escherichia coli, UniProt C3TRK2); experiment: DnaK beta-domain binding affinity, SAR follow-up, orthogonal assay for DnaK modulator project, biophysical, isothermal titration calorimetry, full-length DnaK (AID 1495)
[25] = target: Polyadenylate-binding protein 1 (Homo sapiens, UniProt P11940); experiment: PABP poly(A) RNA binding inhibitors, primary screen, biochemical, fluorescence polarization, uHTS (AID 2014)
[26] = target: Eukaryotic translation initiation factor 4H (Homo sapiens, UniProt Q15056); experiment: human eIF4H binding inhibitors, primary screen, translation initiation inhibitor project, biochemical, uHTS, fluorescence polarization (AID 2012)
[27] = inhibitors of firefly luciferase expression or activity, dose response, H4 neuroglioma cells, luminescence (AID 1990); assay type: functional, cell-based
[28] = target: Cyclin-dependent kinase 5/CDK5 activator 1 (Homo sapiens, UniProt Q00535); experiment: CDK5/p35 kinase inhibitors, dose response, biochemical, cherry-picked samples, set 2 (AID 504545)
[29] = target: T8, Ubiquitin-conjugating enzyme E2 N (Homo sapiens, UniProt P61088); assay type: functional;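 note: Dose-response confirmation in a TR-FRET assay detecting UBC13-driven polyubiquitin chain formation, inhibition measured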
T8 sequence (P61088 whole entry): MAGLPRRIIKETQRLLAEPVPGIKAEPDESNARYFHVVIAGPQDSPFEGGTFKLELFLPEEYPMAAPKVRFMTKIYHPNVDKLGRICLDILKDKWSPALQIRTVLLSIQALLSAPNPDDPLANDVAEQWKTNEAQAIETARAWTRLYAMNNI

T6 sequence (P41145 whole entry): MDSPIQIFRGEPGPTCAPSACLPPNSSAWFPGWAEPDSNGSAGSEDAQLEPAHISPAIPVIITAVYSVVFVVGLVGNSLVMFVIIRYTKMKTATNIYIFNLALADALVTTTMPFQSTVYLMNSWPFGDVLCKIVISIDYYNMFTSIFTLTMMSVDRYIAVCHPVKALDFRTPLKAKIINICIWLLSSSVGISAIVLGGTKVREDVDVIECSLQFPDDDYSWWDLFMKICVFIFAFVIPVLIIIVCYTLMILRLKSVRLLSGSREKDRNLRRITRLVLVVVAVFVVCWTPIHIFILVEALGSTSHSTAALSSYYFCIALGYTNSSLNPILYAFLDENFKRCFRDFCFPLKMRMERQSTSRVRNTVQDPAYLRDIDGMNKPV
T5 sequence (P41143 whole entry): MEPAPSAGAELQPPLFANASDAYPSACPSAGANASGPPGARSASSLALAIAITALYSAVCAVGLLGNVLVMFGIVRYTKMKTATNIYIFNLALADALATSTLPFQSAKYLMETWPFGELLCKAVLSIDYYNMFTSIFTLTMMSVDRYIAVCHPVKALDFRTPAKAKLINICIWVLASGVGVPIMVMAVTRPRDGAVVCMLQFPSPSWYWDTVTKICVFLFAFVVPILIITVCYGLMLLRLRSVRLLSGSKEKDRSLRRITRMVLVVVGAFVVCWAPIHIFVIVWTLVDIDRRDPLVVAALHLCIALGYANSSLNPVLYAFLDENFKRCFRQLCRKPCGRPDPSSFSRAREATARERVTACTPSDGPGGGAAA
T7 sequence (P35372 whole entry): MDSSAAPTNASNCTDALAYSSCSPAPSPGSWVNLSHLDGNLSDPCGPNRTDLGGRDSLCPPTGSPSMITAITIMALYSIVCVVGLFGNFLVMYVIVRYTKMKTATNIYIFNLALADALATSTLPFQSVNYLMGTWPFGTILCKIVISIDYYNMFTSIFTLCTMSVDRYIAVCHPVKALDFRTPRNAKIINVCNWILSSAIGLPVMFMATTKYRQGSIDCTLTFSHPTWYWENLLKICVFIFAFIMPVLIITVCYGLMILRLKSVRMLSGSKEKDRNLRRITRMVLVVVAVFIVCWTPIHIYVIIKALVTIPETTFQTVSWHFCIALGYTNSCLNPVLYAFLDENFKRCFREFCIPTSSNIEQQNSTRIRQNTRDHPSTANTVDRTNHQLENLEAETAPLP
Chain of Neuropeptide Y receptor type 1 (P25929 whole entry): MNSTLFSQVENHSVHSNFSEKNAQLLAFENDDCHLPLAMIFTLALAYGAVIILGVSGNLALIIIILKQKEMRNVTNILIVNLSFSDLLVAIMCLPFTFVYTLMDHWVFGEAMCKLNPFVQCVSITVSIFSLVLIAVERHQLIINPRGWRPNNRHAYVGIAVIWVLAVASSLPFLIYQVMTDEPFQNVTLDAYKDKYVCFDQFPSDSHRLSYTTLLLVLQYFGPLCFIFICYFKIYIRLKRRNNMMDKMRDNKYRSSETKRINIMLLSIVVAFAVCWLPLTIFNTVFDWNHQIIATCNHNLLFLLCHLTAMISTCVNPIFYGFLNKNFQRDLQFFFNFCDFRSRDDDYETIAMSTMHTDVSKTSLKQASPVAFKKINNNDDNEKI
Chain of Genome polyprotein (P29990 2492-3391 limits assumed): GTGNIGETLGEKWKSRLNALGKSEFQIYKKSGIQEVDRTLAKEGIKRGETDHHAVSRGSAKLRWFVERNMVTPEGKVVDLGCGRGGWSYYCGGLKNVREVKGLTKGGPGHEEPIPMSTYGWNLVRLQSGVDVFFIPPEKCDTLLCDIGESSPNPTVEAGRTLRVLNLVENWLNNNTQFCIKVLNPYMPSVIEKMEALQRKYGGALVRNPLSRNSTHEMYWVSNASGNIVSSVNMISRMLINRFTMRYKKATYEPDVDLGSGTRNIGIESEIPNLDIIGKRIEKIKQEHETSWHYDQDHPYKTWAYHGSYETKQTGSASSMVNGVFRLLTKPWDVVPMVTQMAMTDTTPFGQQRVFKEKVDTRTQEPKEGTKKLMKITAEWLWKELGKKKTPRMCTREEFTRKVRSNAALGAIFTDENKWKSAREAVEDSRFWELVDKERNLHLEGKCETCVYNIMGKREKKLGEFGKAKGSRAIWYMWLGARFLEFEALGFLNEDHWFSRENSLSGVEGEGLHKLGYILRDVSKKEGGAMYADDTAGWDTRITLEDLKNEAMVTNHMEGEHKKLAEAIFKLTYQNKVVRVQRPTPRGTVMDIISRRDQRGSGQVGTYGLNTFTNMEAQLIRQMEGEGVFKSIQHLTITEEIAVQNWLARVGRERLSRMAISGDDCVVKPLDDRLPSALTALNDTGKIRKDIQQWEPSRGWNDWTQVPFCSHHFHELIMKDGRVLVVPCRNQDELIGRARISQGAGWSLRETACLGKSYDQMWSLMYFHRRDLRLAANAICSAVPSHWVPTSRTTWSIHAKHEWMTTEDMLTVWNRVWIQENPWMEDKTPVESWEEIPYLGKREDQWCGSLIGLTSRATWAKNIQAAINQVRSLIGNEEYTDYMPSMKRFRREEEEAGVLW
Chain of Luciferin 4-monooxygenase (P08659 whole entry): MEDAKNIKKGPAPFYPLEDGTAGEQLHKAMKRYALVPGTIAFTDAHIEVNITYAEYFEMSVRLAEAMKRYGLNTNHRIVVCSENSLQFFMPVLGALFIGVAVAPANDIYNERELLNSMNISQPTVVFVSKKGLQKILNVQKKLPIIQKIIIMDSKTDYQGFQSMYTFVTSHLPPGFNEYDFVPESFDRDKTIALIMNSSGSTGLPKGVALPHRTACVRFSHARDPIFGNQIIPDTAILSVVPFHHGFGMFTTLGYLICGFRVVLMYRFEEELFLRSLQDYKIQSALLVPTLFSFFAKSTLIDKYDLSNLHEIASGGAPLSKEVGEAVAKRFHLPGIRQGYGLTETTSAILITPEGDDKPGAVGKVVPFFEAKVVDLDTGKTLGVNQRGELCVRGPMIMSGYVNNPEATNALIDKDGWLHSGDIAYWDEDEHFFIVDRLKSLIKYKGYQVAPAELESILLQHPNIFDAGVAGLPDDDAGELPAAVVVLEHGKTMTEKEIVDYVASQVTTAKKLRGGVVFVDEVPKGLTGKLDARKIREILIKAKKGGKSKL
Chain of Cytochrome P450 2D6 (P10635 whole entry): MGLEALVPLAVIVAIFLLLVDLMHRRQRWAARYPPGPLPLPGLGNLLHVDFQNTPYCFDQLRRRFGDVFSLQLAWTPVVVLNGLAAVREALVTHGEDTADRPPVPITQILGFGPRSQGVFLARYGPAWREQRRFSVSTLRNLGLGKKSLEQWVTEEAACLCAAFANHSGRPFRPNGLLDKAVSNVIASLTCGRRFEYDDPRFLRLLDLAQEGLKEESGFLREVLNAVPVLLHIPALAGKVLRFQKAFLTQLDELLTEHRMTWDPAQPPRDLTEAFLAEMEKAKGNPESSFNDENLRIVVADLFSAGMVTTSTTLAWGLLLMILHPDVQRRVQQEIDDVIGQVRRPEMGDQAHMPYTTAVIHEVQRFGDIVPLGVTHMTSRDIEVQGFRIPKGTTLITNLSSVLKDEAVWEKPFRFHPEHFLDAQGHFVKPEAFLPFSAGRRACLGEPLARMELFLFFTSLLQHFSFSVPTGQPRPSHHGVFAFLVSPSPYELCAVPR
Chain of Neuropeptide Y receptor type 2 (P49146 whole entry): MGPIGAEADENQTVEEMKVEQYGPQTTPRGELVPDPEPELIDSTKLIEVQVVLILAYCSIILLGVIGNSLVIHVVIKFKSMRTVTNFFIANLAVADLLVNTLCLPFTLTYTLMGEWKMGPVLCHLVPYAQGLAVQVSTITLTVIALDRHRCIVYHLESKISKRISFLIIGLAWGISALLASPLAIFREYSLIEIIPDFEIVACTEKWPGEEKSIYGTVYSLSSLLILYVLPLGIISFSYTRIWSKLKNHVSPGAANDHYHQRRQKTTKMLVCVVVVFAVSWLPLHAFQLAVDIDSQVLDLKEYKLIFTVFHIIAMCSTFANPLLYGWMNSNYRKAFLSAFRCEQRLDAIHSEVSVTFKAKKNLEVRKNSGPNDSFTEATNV
Chain of Polyadenylate-binding protein 1 (P11940 whole entry): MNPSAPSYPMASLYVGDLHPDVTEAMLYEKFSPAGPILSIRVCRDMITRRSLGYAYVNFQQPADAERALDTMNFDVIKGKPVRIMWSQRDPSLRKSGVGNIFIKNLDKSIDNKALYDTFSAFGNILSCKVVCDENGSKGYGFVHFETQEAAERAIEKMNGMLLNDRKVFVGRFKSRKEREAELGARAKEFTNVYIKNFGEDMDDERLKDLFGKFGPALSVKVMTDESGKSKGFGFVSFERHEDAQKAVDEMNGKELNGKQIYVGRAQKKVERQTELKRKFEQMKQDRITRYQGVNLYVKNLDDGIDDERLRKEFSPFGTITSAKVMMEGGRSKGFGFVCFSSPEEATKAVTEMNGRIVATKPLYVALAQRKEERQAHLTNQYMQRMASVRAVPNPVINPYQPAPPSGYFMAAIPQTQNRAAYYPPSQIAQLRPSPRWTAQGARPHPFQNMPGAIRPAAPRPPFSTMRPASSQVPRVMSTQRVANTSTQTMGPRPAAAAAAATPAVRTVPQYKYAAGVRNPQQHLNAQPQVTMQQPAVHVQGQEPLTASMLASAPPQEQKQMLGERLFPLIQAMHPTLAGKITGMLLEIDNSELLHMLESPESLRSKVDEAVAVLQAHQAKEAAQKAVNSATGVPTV

## Cc1ccc(-c2nc3n(n2)Cc2ccccc2-3)cc1
[1]
  EC50: 0.364 µM (active)
cells
  EC50: > 67.5 µM (inactive)
[2]
  EC50: 6.59 µM (active)
[3]
  EC50: 2.87 µM (active)
HT-1080
  EC50: > 50 µM (not active)
[4]
  EC50: > 67.5 µM (inactive)

## CCOC(=O)OCC1C=C[C@H](c2cc(-c3ccccc3)ccc2O)C(c2ccc(C(C)=O)cc2)O1 (stereo not given in full)
Cytochrome P450 2D6
  AC50: 6.31 µM (inconclusive)

## O=C(Nc1sc2c(c1-c1nc3ccccc3[nH]1)CCCC2)C1CC1
HEK293
  EC50: > 35.4 µM (not active)
[5]
  EC50: 17.3 µM (not active)
[6]
  EC50: > 35.4 µM (not active)

## COC(=O)c1cn(C(=O)c2cccs2)c2ccccc12
[7]
  EC50: > 50 µM (not active)

## CCCCc1oc2ccccc2c1C(=O)c1ccc(O)cc1
Staphylococcus aureus
  IC50: 0.544 µM (active)

## COc1ccc(C(=O)/C=C/c2ccc(-c3ccccc3)cc2)cc1CSCC(=O)O
[8]
  EC50: > 300 µM (not active)
Streptococcus
  EC50: > 150 µM (not active)
Streptokinase A
  EC50: 8.81 µM (active)
Vero [9]
  CC50: > 25 µM (active)
Vero [10]
  IC50: > 25 µM (active)
[11]
  IC50: 9.8 µM (active)
[12]
  IC50: 9.89 µM (active)
[13]
  EC50: > 300 µM (not active)
[14]
  AC50: 9.3 µM (active)
Genome polyprotein
  IC50: 37.7 µM (active)
Vero [15]
  CC50: 29.5 µM (active)
[16]
  EC50: 4.28 µM (active)

## CCc1ccc(Oc2c(Cl)cnn(-c3ccc(C)cc3)c2=O)cc1
[17]
  IC50: 5 µM (active)

## Cc1cccc(-n2ccnc2CN2CCC(CO)(CC3CCCCO3)CC2)c1 (stereo not given)
[18]
  IC50: > 32 µM (inactive)
[19]
  EC50: 5.82 µM (active)
Mu-type opioid receptor [20]
  IC50: > 32 µM (inactive)
[21]
  IC50: > 32 µM (inactive)
Mu-type opioid receptor [22]
  EC50: > 32 µM (inactive)
[23]
  EC50: > 10 µM (inactive)
[24]
  EC50: > 32 µM (inactive)

## O=C(NCc1ccccc1O)c1cccs1
Chaperone protein dnaK
  Kd: 2.3 µM (active)

## O=C(O)c1ccc(N/N=C/c2cc3c(cc2[N+](=O)[O-])OCO3)cc1
[25]
  IC50: 48.8 µM (active)
[26]
  IC50: 21.8 µM (active)

## CC(C)n1cnc2c(Nc3cccc(Cl)c3)nc(N(CCO)CCCO)nc21
[1]
  EC50: 10.7 µM (active)
[2]
  EC50: 9.32 µM (active)
[27]
  EC50: 10.8 µM (active)
[28]
  AC50: 0.463 µM (active)
[29]
  IC50: > 20 µM (inactive)
